Reference: article doi:10.1101/2024.07.10.602960v2, “Contrasting Kinetics of Highly Similar Chloroalkane Reductive Dehalogenases” (biorxiv, 2024)
Like-named read-outs stand apart in the source and are kept apart here.

What was measured:
AcdA [1] = tested on: T1, AcdA; assay: GC-FID product formation in gas-tight syringe, […] min; Michaelis-Menten fit; format: biochemical, Dehalobacter sp.; conditions: 50 mM Tris-HCl pH 7.5, 1 mM methyl viologen, 5 mM Ti(III) citrate, anaerobic, 24 °C
T1 construct: expressed from p15TVL-acdA with pBAD42-BtuCEDFB in E. coli BL21(DE3) suf strain; partially purified; 48 kDa; cobamide and two iron-sulfur clusters

TmrA [2] = target: T2, TmrA (Dehalobacter sp. UNSWDHB, UniProt T0I6H2); assay: GC-FID, total consumption in gas-tight syringe, […] min; substrate-inhibition Michaelis-Menten fit; format: biochemical; conditions: 50 mM Tris-HCl pH 7.5, 1 mM methyl viologen, 5 mM Ti(III) citrate, anaerobic, 24 °C
T2 construct: expressed from p15TVL-tmrA with pBAD42-BtuCEDFB in E. coli BL21(DE3) suf strain; partially purified; 48 kDa; cobamide and two iron-sulfur clusters
T2 sequence (T0I6H2 51-456): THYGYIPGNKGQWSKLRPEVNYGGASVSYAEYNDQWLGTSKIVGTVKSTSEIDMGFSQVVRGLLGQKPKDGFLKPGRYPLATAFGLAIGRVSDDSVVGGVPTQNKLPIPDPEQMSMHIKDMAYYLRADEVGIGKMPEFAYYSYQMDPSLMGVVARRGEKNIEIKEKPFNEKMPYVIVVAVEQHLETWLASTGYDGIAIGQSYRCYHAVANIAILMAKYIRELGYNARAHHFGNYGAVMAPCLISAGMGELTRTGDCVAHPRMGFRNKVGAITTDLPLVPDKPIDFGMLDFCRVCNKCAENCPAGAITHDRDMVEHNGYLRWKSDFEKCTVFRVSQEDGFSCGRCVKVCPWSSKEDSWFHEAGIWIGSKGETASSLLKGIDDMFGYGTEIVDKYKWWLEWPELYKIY

AcdA [3] = tested on: T1, AcdA; assay: as above; format: biochemical, Dehalobacter sp.; conditions: 50 mM Tris-HCl pH 7.5, 1 mM methyl viologen, 5 mM Ti(III) citrate, anaerobic, 24 °C
AcdA [4] = target: T1, AcdA; assay: as above; format: biochemical, Dehalobacter sp.; conditions: 50 mM Tris-HCl pH 7.5, 1 mM methyl viologen, 5 mM Ti(III) citrate, anaerobic, 24 °C; remark: listed apart in the source
CfrA [5] = target: T3, CfrA (Dehalobacter sp. CF, UniProt K4LFB7); assay: as above; format: biochemical; conditions: 50 mM Tris-HCl pH 7.5, 1 mM methyl viologen, 5 mM Ti(III) citrate, anaerobic, 24 °C
T3 construct: expressed from p15TVL-cfrA with pBAD42-BtuCEDFB in E. coli BL21(DE3) suf strain; partially purified; 48 kDa; cobamide and two iron-sulfur clusters

AcdA [6] = conditions: 50 mM Tris-HCl pH 7.5, 1 mM methyl viologen, 5 mM Ti(III) citrate, anaerobic, 24 °C
AcdA [7] = conditions: 50 mM Tris-HCl pH 7.5, 1 mM methyl viologen, 5 mM Ti(III) citrate, anaerobic, 24 °C; substrate inhibition
CfrA [8] = target: T4, CfrA (Dehalobacter sp. CF, UniProt K4LFB7); assay: inhibition of chloroform dechlorination, GC-FID, […] min; single TCE concentration fit; format: biochemical; conditions: uncompetitive; chloroform as substrate, about […] TCE, […] Tris-HCl pH […] methyl viologen, Ti(III) citrate, […] °C
T4 construct: expressed from p15TVL-cfrA with pBAD42-BtuCEDFB in E. coli BL21(DE3) suf strain; partially purified; 48 kDa; cobamide and two iron-sulfur clusters
T4 sequence (K4LFB7 43-456 limits assumed): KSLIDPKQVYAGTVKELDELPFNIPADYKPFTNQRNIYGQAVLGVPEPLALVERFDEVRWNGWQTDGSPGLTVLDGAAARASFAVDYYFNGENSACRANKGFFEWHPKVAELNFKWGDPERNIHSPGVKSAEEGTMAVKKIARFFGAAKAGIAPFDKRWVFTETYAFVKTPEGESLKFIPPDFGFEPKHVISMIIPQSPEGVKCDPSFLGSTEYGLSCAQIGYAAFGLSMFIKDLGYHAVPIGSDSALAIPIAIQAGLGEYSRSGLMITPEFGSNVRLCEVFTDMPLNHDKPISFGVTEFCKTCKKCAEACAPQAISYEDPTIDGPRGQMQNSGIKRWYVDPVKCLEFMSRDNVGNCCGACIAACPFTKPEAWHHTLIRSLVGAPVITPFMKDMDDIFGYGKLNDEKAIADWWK

TmrA [9] = target: T2, TmrA; assay: as above; format: biochemical; conditions: uncompetitive; chloroform as substrate, about 45 µM TCE, 50 mM Tris-HCl pH 7.5, 1 mM methyl viologen, Ti(III) citrate, 20 °C

In the case of `CC(Cl)(Cl)Cl` [1,1,1-trichloroethane], the Km (AcdA [1]) is reported as 280 ± 100 µM.
With `ClCC(Cl)Cl` [1,1,2-trichloroethane] the “KI,TCA” value (TmrA [2]) was 6.2 ± 3.7 mM, the Km (AcdA [3]) was 120 ± 20 µM and the “KI,TCA” value (AcdA [4]) was 2 ± 0.55 mM. For the same molecule, the “KI,TCA” value (CfrA [5]) was 7.1 ± 4.4 mM.
For `ClC(Cl)Cl` [chloroform], the Km (AcdA [6]) was 29 ± 8 µM and the “KI,CF” value (AcdA [7]) was 0.61 ± 0.24 mM.
For `ClC=C(Cl)Cl` [trichloroethene], the “KI,TCE” value (CfrA [8]) was “All three enzymes showed better model fits with uncompetitive inhibition” and the “KI,TCE” value (TmrA [9]) was “All three enzymes showed better model fits with uncompetitive inhibition”.
